From ChEMBL document CHEMBL1201862, “PubChem BioAssay data set” (2004)
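Briefly, cells in 96-well plates were exposed to five compound concentrations for 48 h, and endpoints were estimated by linear interpolation. Abbreviation: GI50, concentration required for 50% inhibition of growth.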 Calls of active or inactive are those of the source. Cut-off read from the data, not from the text of the source: active = GI50 up to about 1.1 µM and inactive = higher.

Experiments:
Assay in all cases: NCI-60 cell line screen, 48 h
PC-3 = tested on: PC-3
OVCAR-5 = tested on: OVCAR-5
HT-29 = tested on: HT-29
NCI/ADR-RES = tested on: NCI/ADR-RES
U-251 = tested on: U-251
UACC-257 = tested on: UACC-257
NCI-H460 = tested on: NCI-H460
786-0 = tested on: 786-0
LOX IMVI = tested on: LOX IMVI
TK-10 = tested on: TK-10
HCT-15 = tested on: HCT-15
SF-295 = tested on: SF-295
MDA-MB-231 = tested on: MDA-MB-231
M14 = tested on: M14
MCF7 = tested on: MCF7
Malme-3M = tested on: Malme-3M
HL-60 = tested on: HL-60
HCC 2998 = tested on: HCC 2998
SNB-75 = tested on: SNB-75
A498 = tested on: A498
SNB-19 = tested on: SNB-19
SR = tested on: SR
BT-549 = tested on: BT-549
MDA-MB-435 = tested on: MDA-MB-435
DU-145 = tested on: DU-145
SF-539 = tested on: SF-539
SK-MEL-5 = tested on: SK-MEL-5
HOP-62 = tested on: HOP-62
OVCAR-4 = tested on: OVCAR-4
KM12 = tested on: KM12
SK-MEL-2 = tested on: SK-MEL-2
HOP-92 = tested on: HOP-92
COLO 205 = tested on: COLO 205
CCRF-CEM = tested on: CCRF-CEM
MDA-N = tested on: MDA-N
UO-31 = tested on: UO-31
ACHN = tested on: ACHN
RXF 393 = tested on: RXF 393
UACC-62 = tested on: UACC-62
OVCAR-3 = tested on: OVCAR-3
K562 = tested on: K562
SF-268 = tested on: SF-268
SK-OV-3 = tested on: SK-OV-3
EKVX = tested on: EKVX
HCT-116 = tested on: HCT-116
IGROV-1 = tested on: IGROV-1
RPMI-8226 = tested on: RPMI-8226
A549 = tested on: A549
SN12C = tested on: SN12C
CAKI-1 = tested on: CAKI-1
T47D = tested on: T47D
Hs-578T = tested on: Hs-578T
SW-620 = tested on: SW-620
SK-MEL-28 = tested on: SK-MEL-28
NCI-H23 = tested on: NCI-H23
NCI-H226 = tested on: NCI-H226
OVCAR-8 = tested on: OVCAR-8
NCI-H522 = tested on: NCI-H522
MOLT-4 = tested on: MOLT-4

## CCN(CC)c1ccc(/C=C/c2ccnc3ccccc23)cc1
PC-3
  GI50: > 100 µM (inactive)
OVCAR-5
  GI50: > 100 µM (inactive)
HT-29
  GI50: > 100 µM (inactive)
NCI/ADR-RES
  GI50: > 100 µM (inactive)
U-251
  GI50: > 100 µM (inactive)
UACC-257
  GI50: > 100 µM (inactive)
NCI-H460
  GI50: > 100 µM (inactive)
786-0
  GI50: > 100 µM (inactive)
LOX IMVI
  GI50: > 100 µM (inactive)
TK-10
  GI50: > 100 µM (inactive)
HCT-15
  GI50: > 100 µM
SF-295
  GI50: > 100 µM (inactive)
MDA-MB-231
  GI50: > 100 µM (inactive)
M14
  GI50: > 100 µM (inactive)
MCF7
  GI50: > 100 µM (inactive)
Malme-3M
  GI50: > 100 µM (inactive)
HL-60
  GI50: > 100 µM (inactive)
HCC 2998
  GI50: > 100 µM (inactive)
SNB-75
  GI50: > 100 µM (inactive)
A498
  GI50: > 100 µM (inactive)
SNB-19
  GI50: > 100 µM (inactive)
SR
  GI50: > 100 µM (inactive)
BT-549
  GI50: > 100 µM (inactive)
MDA-MB-435
  GI50: > 100 µM (inactive)
DU-145
  GI50: > 100 µM (inactive)
SF-539
  GI50: > 100 µM (inactive)
SK-MEL-5
  GI50: > 100 µM (inactive)
HOP-62
  GI50: > 100 µM (inactive)
OVCAR-4
  GI50: > 100 µM (inactive)
KM12
  GI50: > 100 µM (inactive)
SK-MEL-2
  GI50: > 100 µM (inactive)
HOP-92
  GI50: > 100 µM (inactive)
COLO 205
  GI50: > 100 µM (inactive)
CCRF-CEM
  GI50: > 100 µM (inactive)
MDA-N
  GI50: > 100 µM (inactive)
UO-31
  GI50: > 100 µM (inactive)
ACHN
  GI50: > 100 µM (inactive)
RXF 393
  GI50: > 100 µM (inactive)
UACC-62
  GI50: > 100 µM (inactive)
OVCAR-3
  GI50: > 100 µM (inactive)
K562
  GI50: > 100 µM (inactive)
SF-268
  GI50: > 100 µM (inactive)
SK-OV-3
  GI50: > 100 µM (inactive)
EKVX
  GI50: > 100 µM (inactive)
HCT-116
  GI50: > 100 µM (inactive)
IGROV-1
  GI50: > 100 µM (inactive)
RPMI-8226
  GI50: > 100 µM (inactive)
A549
  GI50: > 100 µM (inactive)
SN12C
  GI50: > 100 µM (inactive)
CAKI-1
  GI50: > 100 µM (inactive)
T47D
  GI50: > 100 µM (inactive)
Hs-578T
  GI50: > 100 µM (inactive)
SW-620
  GI50: > 100 µM (inactive)
SK-MEL-28
  GI50: > 100 µM (inactive)
NCI-H23
  GI50: > 100 µM (inactive)

## CC(NNC(=O)c1cc[n+]([BH2-]C#N)cc1)c1cccc(F)c1 (stereo not given)
PC-3
  GI50: > 100 µM (inactive)
OVCAR-5
  GI50: > 100 µM (inactive)
NCI/ADR-RES
  GI50: > 100 µM (inactive)
U-251
  GI50: > 100 µM (inactive)
UACC-257
  GI50: > 100 µM (inactive)
NCI-H460
  GI50: > 100 µM (inactive)
786-0
  GI50: > 100 µM (inactive)
LOX IMVI
  GI50: > 100 µM (inactive)
TK-10
  GI50: > 100 µM (inactive)
NCI-H226
  GI50: > 100 µM (inactive)
HCT-15
  GI50: > 100 µM
SF-295
  GI50: > 100 µM (inactive)
MDA-MB-231
  GI50: > 100 µM (inactive)
M14
  GI50: > 100 µM (inactive)
MCF7
  GI50: > 100 µM (inactive)
Malme-3M
  GI50: > 100 µM (inactive)
HL-60
  GI50: 50.5 µM (inactive)
HCC 2998
  GI50: > 100 µM (inactive)
SNB-75
  GI50: > 100 µM (inactive)
OVCAR-8
  GI50: > 100 µM (inactive)
A498
  GI50: > 100 µM (inactive)
SNB-19
  GI50: > 100 µM (inactive)
SR
  GI50: > 100 µM (inactive)
BT-549
  GI50: > 100 µM (inactive)
MDA-MB-435
  GI50: > 100 µM (inactive)
DU-145
  GI50: > 100 µM (inactive)
SF-539
  GI50: > 100 µM (inactive)
NCI-H522
  GI50: > 100 µM (inactive)
SK-MEL-5
  GI50: 94.2 µM (inactive)
OVCAR-4
  GI50: 69.8 µM (inactive)
KM12
  GI50: > 100 µM (inactive)
SK-MEL-2
  GI50: > 100 µM (inactive)
HOP-92
  GI50: > 100 µM (inactive)
COLO 205
  GI50: > 100 µM (inactive)
CCRF-CEM
  GI50: > 100 µM (inactive)
MDA-N
  GI50: > 100 µM (inactive)
UO-31
  GI50: > 100 µM (inactive)
ACHN
  GI50: > 100 µM (inactive)
MOLT-4
  GI50: > 100 µM (inactive)
RXF 393
  GI50: > 100 µM (inactive)
UACC-62
  GI50: > 100 µM (inactive)
OVCAR-3
  GI50: > 100 µM (inactive)
K562
  GI50: > 100 µM (inactive)
SF-268
  GI50: > 100 µM (inactive)
EKVX
  GI50: > 100 µM (inactive)
HCT-116
  GI50: > 100 µM (inactive)
IGROV-1
  GI50: > 100 µM (inactive)
RPMI-8226
  GI50: > 100 µM (inactive)
A549
  GI50: > 100 µM (inactive)
SN12C
  GI50: > 100 µM (inactive)
CAKI-1
  GI50: > 100 µM (inactive)
T47D
  GI50: > 100 µM (inactive)
Hs-578T
  GI50: > 100 µM (inactive)
SW-620
  GI50: > 100 µM (inactive)
SK-MEL-28
  GI50: > 100 µM (inactive)
